Read-outs that look alike come from different tables or passages of the source.
Key:
[1] = biological target: Avi-humanTEAD4 217-434 / Cy5 labeled humanYAP 60-100 (Homo sapiens (Human), UniProt Q15561); assay: TR-FRET YAP-TEAD4 in-vitro biochemical assay; type: binding; conditions: 1 nM Avi-humanTEAD4 217-434, 20 nM Cy5-humanYAP 60-100, 1 h room temperature
[2] = test system: NCI-H2052 Tet-On shYAP_2371 pLenti6 MCAT_Luc cells (YAP-dependent transcription); assay: YAP reporter gene activity assay (MCAT-luciferase), NCI-H2052; type: cell-based; conditions: 24 hours incubation, BrightGlo luminescence
Method: (§1) This cell line was also transduced with a Tet-pLKO-puro-based construct mediating tetracycline-inducible expression of a short-hairpin directed against the 3′UTR of the YAP1 mRNA (5′-[…]-3′).
(§2) Stock solutions of compounds were prepared at a concentration of 10 mM in DMSO and stored at 4° C. Where necessary to afford a full dose-response curve, the stock solutions were pre-diluted in DMSO to 1'000-fold the desired reduced start concentration. On the day after cell seeding, eleven 2-fold serial dilutions of each compound were dispensed directly into the cell assay plates using a HP 300D non-contact Digital Dispenser (TECAN, Mannedorf, Switzerland). The final concentration of DMSO was normalized to 0.1% in all wells.
The ability of compounds to inhibit YAP-dependent transcription was assessed in NCI-H2052 Tet-On shYAP_2371 pLenti6 MCAT_Luc cells, while specificity (lack of unspecific inhibition of luciferase expression of activity) was assessed in MKN-45/Ubc-luc cells. […] Following incubation for 24 hours at 37° C., compound-mediated modulation of reporter-gene activity was quantified 5 min after addition of 20 μl BrightGlo (Promega, Cat #E2620), by measuring luminescence intensity on a multi-mode plate-reader (TECAN, Männedorf, Switzerland, Integration time 100 ms). For data analysis, the assay background value determined in wells containing medium, but no cells, was subtracted from all data points. Dose-dependent compound effects were expressed as % of vehicle-treated control (luminescence signal produced by cells receiving DMSO only) and IC50s calculated using a four-parametric fit model.

[3] = test system: NCI-H2052 Tet-On shYAP_2371 pLenti6 MCAT_Luc cells; assay: Proliferation assay (resazurin), NCI-H2052; type: cell-based; conditions: 72 hours incubation
Method: as §1, §2
(§3) The functional effect of compounds on cell proliferation was assessed using NCI-H2052 Tet-On shYAP_2371 pLenti6 MCAT_Luc and MKN-45/Ubc-luc cells by quantifying the reducing capacity of live cells using the redox indicator dye resazurin. […] For data analysis, the assay background value determined in wells containing medium, but no cells, was subtracted from all data points. […] The effect of a particular test compound concentration on cell proliferation/viability was expressed as percentage of day 0-corrected fluorescence reading obtained for cells treated with vehicle only (DMSO, final concentration 0.1%), which was set as 100%, whereas the fluorescence reading for wells containing medium only, but no cells, was set as −100%. Compound concentrations leading to half-maximal growth inhibition (GI50) were determined using standard four parameter curve fitting.

MKN-45/Ubc-luc cells [4] = assay: Proliferation assay (resazurin), MKN-45; type: cell-based; conditions: 72 hours incubation
Method: As a specificity control, MKN-45 cells were stably transduced with a Ubc-Luc reporter construct, in which constitutive expression of firefly luciferase is driven by the promoter of the ubiquitin C housekeeping gene.
as §2, §3

MKN-45/Ubc-luc cells [5] = assay: Reporter gene specificity control (Ubc-luciferase), MKN-45
[6] = Homo sapiens, MKN-45, 24 h, read-out: Reporter gene assay MKN-45 IC50 [μM], MKN-45/Ubc-luc cells (YAP deleted, specificity control), 24 hours incubation

Avi-humanTEAD4 217-434 / Cy5 labeled humanYAP 60-100, sequence (Q15561 217-434): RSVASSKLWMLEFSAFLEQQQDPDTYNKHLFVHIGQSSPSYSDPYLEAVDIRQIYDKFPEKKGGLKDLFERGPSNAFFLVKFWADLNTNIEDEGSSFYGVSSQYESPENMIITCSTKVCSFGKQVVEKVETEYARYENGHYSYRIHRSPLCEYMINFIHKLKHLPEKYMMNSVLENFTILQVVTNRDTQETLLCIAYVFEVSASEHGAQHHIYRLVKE

SMILES	IC50 [1] [nM]	IC50 ([2]; Homo sapiens, NCI-H2052, 24 h) [nM]	GI50 ([3]; Homo sapiens, NCI-H2052, 72 h) [nM]	GI50 (MKN-45/Ubc-luc cells [4]; Homo sapiens) [nM]	IC50 (MKN-45/Ubc-luc cells [5]; [6]) [µM]	IC50 [2] [nM]	GI50 [3] [nM]	GI50 (MKN-45/Ubc-luc cells [4]) [nM]	IC50 (MKN-45/Ubc-luc cells [5]; read-out: Reporter gene assay MKN-45 IC50, MKN-45/Ubc-luc cells (YAP deleted, specificity control), 24 hours incubation) [µM]
C[C@H](O)COc1ccc(C(N)=O)c(-c2c(Cl)c(F)cc3c2[C@H](C)[C@](c2ccccc2)(C2CCCN2)O3)c1F (stereo partly drawn) [Example 167, 2-((2S,3S,4S)-5-chloro-6-fluoro-3-methyl-2-phenyl-2-(pyrrolidin-2-yl)-2,3-dihydrobenzofuran-4-yl)-3-fluoro-4-((S)-2-hydroxypropoxy)benzamide]	10	58	82	> 10000	> 10	–	–	–	–
COc1ccc(C(N)=O)c(-c2c(C(F)(F)F)ccc3c2C[C@@](CN)(c2ccccc2)O3)c1 (atropisomer, axis not shown) [Example 128, 2-((2S,4R)-2-(Aminomethyl)-2-phenyl-5-(trifluoromethyl)-2,3-dihydrobenzofuran-4-yl)-4-methoxybenzamide]	176	5720	7050	> 10000	> 10	–	–	–	–
CNC(=O)c1cnc(OCCO)c(F)c1-c1c(Cl)c(F)cc2c1C[C@](c1ccccc1)([C@@H]1CCCN1)N2 (atropisomer, axis not shown) [Example 173, 4-((2S,4S)-5-Chloro-6-fluoro-2-phenyl-2-((S)-pyrrolidin-2-yl)indolin-4-yl)-5-fluoro-6-(2-hydroxyethoxy)-N-methylnicotinamide]	14	187	158	> 20000	> 20	–	–	–	–
NC[C@@]1(c2ccccc2)Cc2c(ccc(Cl)c2-c2c(F)cccc2C(N)=O)O1 (atropisomer, axis not shown) [Example 4a-1, 2-((2S,4S)-2-(aminomethyl)-5-chloro-2-phenyl-2,3-dihydrobenzofuran-4-yl)-3-fluorobenzamide]	20	600	590	> 10000	> 10	–	–	–	–
CNC[C@@]1(c2ccccc2)Cc2c(ccc(Cl)c2-c2c(C(=O)NC)ccc(OC)c2F)O1 (atropisomer, axis not shown) [Example 26, 2-((2S,4S)-5-Chloro-2-((methylamino)methyl)-2-phenyl-2,3-dihydrobenzofuran-4-yl)-3-fluoro-4-methoxy-N-methylbenzamide]	21	144	310	> 10000	> 20	–	–	–	–

The remaining compounds from weak to strong by IC50 [1], led by results:

IC50 [1] [nM]	IC50 ([2]; Homo sapiens, NCI-H2052, 24 h) [nM]	GI50 ([3]; Homo sapiens, NCI-H2052, 72 h) [nM]	GI50 (MKN-45/Ubc-luc cells [4]; Homo sapiens) [nM]	IC50 (MKN-45/Ubc-luc cells [5]; [6]) [µM]	IC50 [2] [nM]	GI50 [3] [nM]	GI50 (MKN-45/Ubc-luc cells [4]) [nM]	IC50 (MKN-45/Ubc-luc cells [5]; read-out: Reporter gene assay MKN-45 IC50, MKN-45/Ubc-luc cells (YAP deleted, specificity control), 24 hours incubation) [µM]	SMILES
10	2000	1850	> 10000	> 10	–	–	–	–	COc1ccc(C(N)=O)c(-c2c(Cl)ccc3c2C[C@@](CN)(c2cscn2)O3)c1F (atropisomer, axis not shown) [Example 29, 2-((2R,4S)-2-(Aminomethyl)-5-chloro-2-(thiazol-4-yl)-2,3-dihydrobenzofuran-4-yl)-3-fluoro-4-methoxybenzamide]
6	–	–	–	–	54	89	> 10000	> 10	CC(C)(O)C1CC(NC[C@@]2(c3ccccc3)Cc3c(cc(F)c(Cl)c3-c3c(C(N)=O)ccc(OC(F)F)c3F)O2)C1 (single isomer, unassigned) [Example 62b]
4	54	53	> 20000	> 20	–	–	–	–	C[C@H]1c2c(cc(F)c(Cl)c2-c2c(C(N)=O)ccc(OCC(C)(C)O)c2F)O[C@]1(CN[C@H]1CC[C@](C)(O)CC1)c1ccccc1 (atropisomer, axis not shown) [Example 148, 2-((2S,3S,4S)-5-Chloro-6-fluoro-2-((((trans)-4-hydroxy-4-methylcyclohexyl)amino)methyl)-3-methyl-2-phenyl-2,3-dihydrobenzofuran-4-yl)-3-fluoro-4-(2-hydroxy-2-methylpropoxy)benzamide]
2	33	52	> 10000	> 10	–	–	–	–	COCCOc1ccc(C(N)=O)c(-c2c(Cl)c(F)cc3c2C[C@@](CN)(c2ccccc2)O3)c1F (atropisomer, axis not shown) [Example 37, 2-((2S,4S)-2-(aminomethyl)-5-chloro-6-fluoro-2-phenyl-2,3-dihydrobenzofuran-4-yl)-3-fluoro-4-(2-methoxyethoxy)benzamide]
